Data on eleven molecules can be found in patent EP4702986A1, “POLYPEPTIDE AND USE THEREOF” (Biocells (Beijing) Biotech Co., Ltd., priority 2023, dated 2024).

By half-life is commonly meant the time needed for the level to fall by half in the phase considered.

Where two headings read alike, the source gives them in different places. Numbered stars: 1 amine (or outer) side, 2 acyl side, 3 side chain; on linkers, the order of the positions; unused ones are H or OH. Bridge positions count the residues as written; N and C are the ends. Side chains are listed from the residue outwards. Ends that are not written are not given here. Peptide text beside a SMILES is read from it. * marks the point of attachment. C18 diacid = O=C(O)CCCCCCCCCCCCCCCCC(=O)*; γGlu = O=C(O)[C@H](CCC(=O)[*:2])N[*:1]; Fumaroyl = O=C(O)/C=C/C(=O)*; Suc = O=C(CCC(=O)[*:2])[*:1]; AEEA = NCCOCCOCC(=O)O A value given as a limit tells only on which side of the number the result lay.

For data set [1], the target named is T1, human ETB receptor (Homo sapiens, UniProt P24530).
T1 construct: expressed in transfected cells; host or cells: 293T-17 cells, transient transfection
T1 sequence (P24530 27-442): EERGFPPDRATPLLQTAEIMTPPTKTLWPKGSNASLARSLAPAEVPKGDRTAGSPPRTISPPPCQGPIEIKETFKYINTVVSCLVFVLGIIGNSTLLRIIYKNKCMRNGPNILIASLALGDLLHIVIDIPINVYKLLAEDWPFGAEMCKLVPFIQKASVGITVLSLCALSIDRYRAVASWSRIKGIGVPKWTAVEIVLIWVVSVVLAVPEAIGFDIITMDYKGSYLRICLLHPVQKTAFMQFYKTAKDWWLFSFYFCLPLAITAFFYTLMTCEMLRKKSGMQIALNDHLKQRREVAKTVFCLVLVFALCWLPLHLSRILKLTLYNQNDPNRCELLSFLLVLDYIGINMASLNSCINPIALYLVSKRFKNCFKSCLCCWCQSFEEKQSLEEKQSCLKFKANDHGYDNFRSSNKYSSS
The experiment in a line: Screening of polypeptides for activity on human ETB receptor (IP-One Gq kit, % of positive control IRL1620). Type of data set: cell-based. On the procedure: 293T-17 cells were seeded at a density of 650,000 cells per well in a 6-well plate and cultured overnight in an incubator at 37°C and 5% CO2. Afterward, the cells were transfected with an expression vector, PCDNA3.1-hETB which contained a human ETB receptor gene, at a plasmid concentration of 2.5 µg per well. The cells were further cultured for 48 hours, and green fluorescence expression was observed under a fluorescence microscope. The cells were then digested with trypsin and counted. The activity of compounds on the human ETB receptor was determined with the IP-One Gq kit from Cisbio Bioassays. The cells were suspended in Stim Buffer provided in the kit and the cell suspension was added to a 96-well detection plate at 7 µL cell suspension (containing 30,000 cells) per well. The polypeptides to be screened for activity (prepared according to the Preparation Example of the invention) and polypeptide IRL1620 as positive control were dissolved in Stim B to be at a concentration of 2×, and 7 µL was added to the test cells, while 7 µL of PBS solution was added to the cells in the negative control wells. IRL1620 was used as the positive control polypeptide. The plate was sealed and incubated at 37°C for 1 hour in a cell culture incubator. Test wells, positive control wells, and PBS control wells were each added with 3 µL of IP1 d2 working solution and 3 µL of IP1 Tb cryptotate Antibody working solution. The plate was then sealed and incubated in the dark at room temperature (25°C±5°C) for 1 hour. The plate seal was removed, and the […] at 665 nm and 620 nm was measured with an ID5 microplate reader. The ratio of the acceptor emission signal to the donor emission signal, i.e., the value of (signal at 665 nm/signal at 620 nm)×10^4, was calculated for each well. With F1 representing the average value of values of signal at 665 nm/signal at 620 nm determined for the test sample at a specific concentration, F2 representing the average value of values of signal at 665 nm/signal at 620 nm determined for the positive control IRL1620 at the same concentration, and T1 representing the average value of values of signal at 665 nm/signal at 620 nm determined for the PBS negative control, the percentage of activity of the test polypeptide sample relative to the positive control sample IRL1620 is equal to (F1-T1)×100/(F2-T1). hETB sequence (NCBI accession number NM_000115.5).

Data set [2] addresses T2, human ETA receptor (Homo sapiens, UniProt P25101).
T2 construct: expressed in transfected cells; host or cells: 293T-17 cells, transient transfection
T2 sequence (P25101 21-427): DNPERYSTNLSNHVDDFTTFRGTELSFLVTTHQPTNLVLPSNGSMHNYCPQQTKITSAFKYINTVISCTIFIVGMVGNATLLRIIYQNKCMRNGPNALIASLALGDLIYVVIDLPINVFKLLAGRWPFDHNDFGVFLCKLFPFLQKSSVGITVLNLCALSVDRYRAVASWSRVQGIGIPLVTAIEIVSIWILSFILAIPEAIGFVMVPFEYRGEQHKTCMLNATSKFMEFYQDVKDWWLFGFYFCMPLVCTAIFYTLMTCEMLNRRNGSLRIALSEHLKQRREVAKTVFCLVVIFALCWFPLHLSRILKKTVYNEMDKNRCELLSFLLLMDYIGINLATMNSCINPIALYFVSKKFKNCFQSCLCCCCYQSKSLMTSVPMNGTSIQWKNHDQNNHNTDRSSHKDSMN
The data set can be described thus: Selectivity of polypeptides on human ETA receptor (IP-One Gq kit, % of positive control ET1). Type of data set: cell-based. The method, then: 293T-17 cells were seeded at a density of 650,000 cells per well in a 6-well plate and cultured overnight in an incubator at 37°C and 5% CO2. Afterward, the cells were transfected with an expression vector, PCDNA3.1-hETA which contained a human ETA receptor gene, at a plasmid concentration of 2.5 µg per well. The cells were further cultured for 48 hours, and green fluorescence expression was observed under a fluorescence microscope. The cells were then digested with trypsin and counted. The activity of compounds on the human ETA receptor was determined with the IP-One Gq kit from Cisbio Bioassays. The cells were suspended in Stim Buffer provided in the kit and the cell suspension was added to a 96-well detection plate at 7 µL cell suspension (containing 30,000 cells) per well. The polypeptides to be screened for activity (prepared according to the Preparation Example of the invention) and polypeptide human endothelin ET1 as positive control were dissolved in Stim B to be at a concentration of 2×, and 7 µL was added to the test cells, while 7 µL of PBS solution was added to the cells in the negative control wells. Human endothelin ET1 (ET1: […] (C1-C15,C3-C11)) set forth in SEQ ID No. 85 was used as the positive control polypeptide. The plate was sealed and incubated at 37°C for 1 h in a cell culture incubator. Detection wells, positive control wells, and PBS control wells were each added with 3 µL of IP1 d2 working solution and 3 µL of IP1 Tb cryptotate Antibody working solution. The plate was sealed and incubated in the dark at room temperature (25°C±5°C) for 1 h. The plate seal was removed, and the […] at 665 nm and 620 nm was measured with an ID5 microplate reader. The ratio of the acceptor emission signal to the donor emission signal, i.e., the value of (signal at 665 nm/signal at 620 nm)×10^4, was calculated for each well. With F3 representing the average value of values of signal at 665 nm/signal at 620 nm determined for the test sample at a specific concentration, F5 representing the average value of values of signal at 665 nm/signal at 620 nm determined for the positive control human endothelin ET1 at the same concentration, and T3 representing the average value of values of signal at 665 nm/signal at 620 nm determined for the PBS negative control, the percentage of activity of the test polypeptide sample relative to the positive control sample ET1 = (F3-T3)×100/(F5-T3) (see Table 6). hETA sequence (NCBI accession number L06622.1).

Data set [3] can be described thus: Determination of half-lives of polypeptides (plasma, LC-MS). The following applies: for half-life: C57 BL/6, mouse, plasma, iv; for AUClast 0-30 min: C57 BL/6 mice, i.v., dosage per compound 0.48, 0.96 or 1 mpk.
[4] abbreviates: read-out: hETAR agonist activity, percentage of activity relative to ET1.

For “Suc-D cyclo(EEAK)YFAHK(-γE-AEEA-AEEA-ODDA)DIIW [BX-77]”, the entries for the “hETBR agonist activity, percentage of activity relative to IRL1620” value in data set [1] and in data set [1] (@10nM) were 4.69%@100nM and -16.59%@10nM, respectively. Further, the “hETAR agonist activity, percentage of activity relative to ET1” value in data set [2] is -6.32%@100µM; in data set [2] (@10µM), -29.53%@10µM.

`CC[C@H](C)[C@H](NC(=O)[C@@H](NC(=O)[C@H](CC(=O)O)NC(=O)[C@H](CC(C)C)NC(=O)[C@H](Cc1c[nH]cn1)NC(=O)[C@H](C)NC(=O)[C@H](Cc1ccccc1)NC(=O)[C@H](Cc1ccc(O)cc1)NC(=O)[C@@H]1CCCCNC(=O)CC[C@H](NC(=O)[C@H](CC(=O)O)NC(=O)CCC(=O)O)C(=O)N[C@@H](CCC(=O)O)C(=O)N[C@@H](C)C(=O)N1)C(C)C)C(=O)N[C@@H](Cc1c[nH]c2ccccc12)C(=O)O` [BX-76] (Suc-DEEAKYFAHLDVIW-OH; lactam 2-5): in data set [3], the half-life amounted to 3.6 min and the “AUClast 0-30 min” value was determined as 250 ng·h/mL. In addition, in data set [2] (setting [4]), the activation at 10 µM is -20.9% and the activation at 100 µM was -7.56%.

As to “Suc-D cyclo(EEAK)YFAHK(-γE-AEEA-AEEA-ODDA)DVIW [BX-79]”, the figures for the “hETBR agonist activity, percentage of activity relative to IRL1620” value in data set [1] and in data set [1] (@10nM) were 19.85%@100nM and 2.13%@10nM, respectively. In addition, the “hETAR agonist activity, percentage of activity relative to ET1” value is recorded as -12.17%@100µM in data set [2] and -46.08%@10µM in data set [2] (@10µM).

As to “Fum-DEE cyclo(EVYFK)HKD(2-Abu)IW [BX-62]”, the entries for the “hETBR agonist activity, percentage of activity relative to IRL1620” value in data set [1] and in data set [1] (@10nM) were 129.39%@100nM and 99.31%@10nM, respectively. The “hETAR agonist activity, percentage of activity relative to ET1” value in data set [2] (@10nM) is -17.37%@10nM; in data set [2] (@100nM), -19.09%@100nM.

Turning to “Suc-DEEAVYFAHK(-γE-AEEA-AEEA-ODDA)DVIW (Suc-DEEAVYFAHK([γGlu-AEEA-AEEA-C18 diacid])DVIW) [BX-78]”, the “hETBR agonist activity, percentage of activity relative to IRL1620” value in data set [1] was 23.41%@100nM; in data set [1] (@10nM), -14.2%@10nM. Moreover, the “hETAR agonist activity, percentage of activity relative to ET1” value is -23.02%@100µM in data set [2] and -6.06%@10µM in data set [2] (@10µM).

Regarding “Fum-DEEK(-γE-AEEA-AEEA-ODDA)VYFAHLDIIW (Fum-DEEK with lipidated linker N-terminal) [BX-66]”, the “hETBR agonist activity, percentage of activity relative to IRL1620” value in data set [1] is given as 60.51%@100nM; in data set [1] (@10nM), 7.67%@10nM. Also, the “hETAR agonist activity, percentage of activity relative to ET1” value is reported as -0.94%@100µM in data set [2] and 13.13%@10µM in data set [2] (@10µM).

For `CC[C@H](C)[C@H](NC(=O)[C@H](CC(=O)O)NC(=O)[C@H](CC(C)C)NC(=O)[C@H](Cc1c[nH]cn1)NC(=O)[C@H](C)NC(=O)[C@H](Cc1ccccc1)NC(=O)[C@H](Cc1ccc(O)cc1)NC(=O)[C@@H]1CSSC[C@H](NC(=O)[C@H](CCC(=O)O)NC(=O)[C@H](CC(=O)O)NC(=O)CCC(=O)O)C(=O)N[C@@H](CCC(=O)O)C(=O)N[C@@H](CCC(=O)O)C(=O)N1)C(=O)N[C@H](C(=O)N[C@@H](Cc1c[nH]c2ccccc12)C(=O)O)[C@@H](C)CC` [BX-56] (Suc-DECEECYFAHLDIIW-OH; disulfide 3-6), in data set [3], the half-life came out at 8.9 min and the “AUClast 0-30 min” value is 1376 ng·h/mL.

For the molecule “Suc-D cyclo(EEAK)YFAHLD(2-Abu)IW [BX-63]”, the “hETBR agonist activity, percentage of activity relative to IRL1620” value in data set [1] amounted to 122.93%@100nM; in data set [1] (@10nM) it was 90.08%@10nM. Moreover, the figures for the “hETAR agonist activity, percentage of activity relative to ET1” value in data set [2] and in data set [2] (@10µM) were 4.43%@100µM and -15.24%@10µM, respectively.

Regarding “Fum-D cyclo(EEAK)YFAHLD(2-Abu)IW [BX-64]”, the “hETBR agonist activity, percentage of activity relative to IRL1620” value in data set [1] is reported as 132.16%@100nM; in data set [1] (@10nM), 79.92%@10nM. Besides, the “hETAR agonist activity, percentage of activity relative to ET1” value in data set [2] is reported as 6.41%@100µM; in data set [2] (@10µM), -13.52%@10µM.

Turning to “Fum-D cyclo(EEAK)YFAHK(-γE-AEEA-AEEA-ODDA)DVIW [BX-100]”, the entries for the “hETBR agonist activity, percentage of activity relative to IRL1620” value in data set [1] and in data set [1] (@10nM) were 15.03%@100nM and 18.79%@10nM, respectively. For the same molecule, the “hETAR agonist activity, percentage of activity relative to ET1” value in data set [2] is listed as 9.52%@100µM; in data set [2] (@10µM), -39.09%@10µM.

Consider `CC[C@H](C)[C@H](NC(=O)[C@H](CC(=O)O)NC(=O)[C@H](CCCCN)NC(=O)[C@H](Cc1c[nH]cn1)NC(=O)[C@H](C)NC(=O)[C@H](Cc1ccccc1)NC(=O)[C@H](Cc1ccc(O)cc1)NC(=O)[C@@H](NC(=O)[C@H](C)NC(=O)[C@H](CCC(=O)O)NC(=O)[C@H](CCC(=O)O)NC(=O)[C@H](CC(=O)O)NC(=O)/C=C/C(=O)O)C(C)C)C(=O)N[C@H](C(=O)N[C@@H](Cc1c[nH]c2ccccc12)C(=O)O)[C@@H](C)CC` [F-BX-5] (Fumaroyl-DEEAVYFAHKDIIW-OH), for which, in data set [3], the half-life is below 3 min and the “AUClast 0-30 min” value was 127 ng·h/mL.
